In US8735414B2 (priority 2009, dated 2014):

Legend:
[1] = tested on: bicistronic HCV replicon (replicon RNA, GenBank Accession No. AJ242654); assay: HCV Replicon Assay; type: cell-based; details: Hepatitis C virus, 72 h, read-out: Replicon IC50

| SMILES | IC50 [1] | melting point |
| --- | --- | --- |
| Cc1ccc2c(c1)c(C#N)c(-c1ccc(S(=O)(=O)NC(CF)CF)cn1)n2CC1CC1 [compound 373, 6-[3-cyano-1-(cyclopropylmethyl)-5-methyl-1H-indol-2-yl]-N-(1,3-difluoropropan-2-yl)pyridine-3-sulfonamide] | < 500 nM | 186 to 188 °C |
| CCc1ccc2c(c1)c(C#N)c(-c1ccc(S(=O)(=O)N[C@@H](C)C(F)(F)F)cn1)n2C1CCCC1 [compound 374, 6-(3-cyano-1-cyclopentyl-5-ethyl-1H-indol-2-yl)-N-[(2S)-1,1,1-trifluoropropan-2-yl]pyridine-3-sulfonamide] | < 500 nM | 159.5 to 160.5 °C |
| C[C@H](NS(=O)(=O)c1ccc(-c2c(C#N)c3ccc(Cl)cc3n2C2CCC2)nc1)C(F)(F)F [compound 375, 6-(6-chloro-3-cyano-1-cyclobutyl-1H-indol-2-yl)-N-[(2S)-1,1,1-trifluoropropan-2-yl]pyridine-3-sulfonamide] | < 500 nM | 198 to 204 °C |
| C[C@H](NS(=O)(=O)c1ccc(-c2c(C#N)c3cc(Cl)ccc3n2C2CCC2)nc1)C(F)(F)F [compound 376, 6-(5-chloro-3-cyano-1-cyclobutyl-1H-indol-2-yl)-N-[(2S)-1,1,1-trifluoropropan-2-yl]pyridine-3-sulfonamide] | < 500 nM | 193 to 198 °C |
| N#Cc1c(-c2ncc(S(=O)(=O)NC(CF)CF)cn2)n(C2CCC2)c2ccc(CF)cc12 [compound 377, 2-[3-cyano-1-cyclobutyl-5-(fluoromethyl)-1H-indol-2-yl]-N-(1,3-difluoropropan-2-yl)pyrimidine-5-sulfonamide] | < 500 nM | 131 to 134 °C |
| C[C@H](NS(=O)(=O)c1cnc(-c2c(C#N)c3cc(C(F)F)ccc3n2C2CCC2)nc1)C(F)(F)F [compound 380, 2-[3-cyano-1-cyclobutyl-5-(difluoromethyl)-1H-indol-2-yl]-N-[(2S)-1,1,1-trifluoropropan-2-yl]pyrimidine-5-sulfonamide] | < 500 nM | 186 to 188 °C |
| CCc1ccc2c(c1)c(C#N)c(-c1ccc(S(=O)(=O)NC(CF)CF)cn1)n2C1CCCC1 [compound 381, 6-(3-cyano-1-cyclopentyl-5-ethyl-1H-indol-2-yl)-N-(1,3-difluoropropan-2-yl)pyridine-3-sulfonamide] | < 500 nM | 167 to 168 °C |
| CC(C)(NS(=O)(=O)c1ccc(-c2c(C#N)c3ccc(OC(F)F)cc3n2C2CCCC2)nc1)C(F)(F)F [compound 382, 6-[3-cyano-1-cyclopentyl-6-(difluoromethoxy)-1H-indol-2-yl]-N-(1,1,1-trifluoro-2-methylpropan-2-yl)pyridine-3-sulfonamide] | < 500 nM | 170 to 174 °C |
| C[C@H](NS(=O)(=O)c1ccc(-c2c(C#N)c3ccc(C4CC4)cc3n2C2CCCC2)nc1)C(F)(F)F [compound 383, 6-(3-cyano-1-cyclopentyl-6-cyclopropyl-1H-indol-2-yl)-N-[(2S)-1,1,1-trifluoropropan-2-yl]pyridine-3-sulfonamide] | < 500 nM | 178 to 181 °C |
| C[C@H](NS(=O)(=O)c1ccc(-c2c(C#N)c3ccc(CC(F)F)cc3n2C2CCC2)nc1)C(F)(F)F [compound 384, 6-[3-cyano-1-cyclobutyl-6-(2,2-difluoroethyl)-1H-indol-2-yl]-N-[(2S)-1,1,1-trifluoropropan-2-yl]pyridine-3-sulfonamide] | < 500 nM | 172 to 174 °C |
| C[C@H](NS(=O)(=O)c1cnc(-c2c(C#N)c3ccc(CC(F)F)cc3n2C2CCC2)nc1)C(F)(F)F [compound 385, 2-[3-cyano-1-cyclobutyl-6-(2,2-difluoroethyl)-1H-indol-2-yl]-N-[(2S)-1,1,1-trifluoropropan-2-yl]pyrimidine-5-sulfonamide] | < 500 nM | 216 to 218 °C |
